Columns and labels:
[1] = biological target: Recombinant G2019S-LRRK2 protein (Homo sapiens (Human), UniProt Q5S007, G2019S); assay: LRRK2 kinase activity, LanthaScreen TR-FRET assay (G2019S); assay type: biochemical; details: LRRKtide 400 nM, 25 μM ATP, 60 min
Method in brief: (§1)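 Recombinant human wild-type or G2019S LRRK2 phosphorylated fluorescein-labelled LRRKtide (ERM-based) with ATP and serially diluted compound for 60 min at room temperature.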

[2] = biological target: Recombinant wild type LRRK2 protein (Homo sapiens (Human), UniProt Q5S007); assay: LRRK2 kinase activity, LanthaScreen TR-FRET assay (wild type); assay type: biochemical; details: LRRKtide 400 nM, 25 μM ATP, 60 min; read-out: LRRK2 WT IC50
Method in brief: as §1

Recombinant wild type LRRK2 protein, sequence (Q5S007 whole entry): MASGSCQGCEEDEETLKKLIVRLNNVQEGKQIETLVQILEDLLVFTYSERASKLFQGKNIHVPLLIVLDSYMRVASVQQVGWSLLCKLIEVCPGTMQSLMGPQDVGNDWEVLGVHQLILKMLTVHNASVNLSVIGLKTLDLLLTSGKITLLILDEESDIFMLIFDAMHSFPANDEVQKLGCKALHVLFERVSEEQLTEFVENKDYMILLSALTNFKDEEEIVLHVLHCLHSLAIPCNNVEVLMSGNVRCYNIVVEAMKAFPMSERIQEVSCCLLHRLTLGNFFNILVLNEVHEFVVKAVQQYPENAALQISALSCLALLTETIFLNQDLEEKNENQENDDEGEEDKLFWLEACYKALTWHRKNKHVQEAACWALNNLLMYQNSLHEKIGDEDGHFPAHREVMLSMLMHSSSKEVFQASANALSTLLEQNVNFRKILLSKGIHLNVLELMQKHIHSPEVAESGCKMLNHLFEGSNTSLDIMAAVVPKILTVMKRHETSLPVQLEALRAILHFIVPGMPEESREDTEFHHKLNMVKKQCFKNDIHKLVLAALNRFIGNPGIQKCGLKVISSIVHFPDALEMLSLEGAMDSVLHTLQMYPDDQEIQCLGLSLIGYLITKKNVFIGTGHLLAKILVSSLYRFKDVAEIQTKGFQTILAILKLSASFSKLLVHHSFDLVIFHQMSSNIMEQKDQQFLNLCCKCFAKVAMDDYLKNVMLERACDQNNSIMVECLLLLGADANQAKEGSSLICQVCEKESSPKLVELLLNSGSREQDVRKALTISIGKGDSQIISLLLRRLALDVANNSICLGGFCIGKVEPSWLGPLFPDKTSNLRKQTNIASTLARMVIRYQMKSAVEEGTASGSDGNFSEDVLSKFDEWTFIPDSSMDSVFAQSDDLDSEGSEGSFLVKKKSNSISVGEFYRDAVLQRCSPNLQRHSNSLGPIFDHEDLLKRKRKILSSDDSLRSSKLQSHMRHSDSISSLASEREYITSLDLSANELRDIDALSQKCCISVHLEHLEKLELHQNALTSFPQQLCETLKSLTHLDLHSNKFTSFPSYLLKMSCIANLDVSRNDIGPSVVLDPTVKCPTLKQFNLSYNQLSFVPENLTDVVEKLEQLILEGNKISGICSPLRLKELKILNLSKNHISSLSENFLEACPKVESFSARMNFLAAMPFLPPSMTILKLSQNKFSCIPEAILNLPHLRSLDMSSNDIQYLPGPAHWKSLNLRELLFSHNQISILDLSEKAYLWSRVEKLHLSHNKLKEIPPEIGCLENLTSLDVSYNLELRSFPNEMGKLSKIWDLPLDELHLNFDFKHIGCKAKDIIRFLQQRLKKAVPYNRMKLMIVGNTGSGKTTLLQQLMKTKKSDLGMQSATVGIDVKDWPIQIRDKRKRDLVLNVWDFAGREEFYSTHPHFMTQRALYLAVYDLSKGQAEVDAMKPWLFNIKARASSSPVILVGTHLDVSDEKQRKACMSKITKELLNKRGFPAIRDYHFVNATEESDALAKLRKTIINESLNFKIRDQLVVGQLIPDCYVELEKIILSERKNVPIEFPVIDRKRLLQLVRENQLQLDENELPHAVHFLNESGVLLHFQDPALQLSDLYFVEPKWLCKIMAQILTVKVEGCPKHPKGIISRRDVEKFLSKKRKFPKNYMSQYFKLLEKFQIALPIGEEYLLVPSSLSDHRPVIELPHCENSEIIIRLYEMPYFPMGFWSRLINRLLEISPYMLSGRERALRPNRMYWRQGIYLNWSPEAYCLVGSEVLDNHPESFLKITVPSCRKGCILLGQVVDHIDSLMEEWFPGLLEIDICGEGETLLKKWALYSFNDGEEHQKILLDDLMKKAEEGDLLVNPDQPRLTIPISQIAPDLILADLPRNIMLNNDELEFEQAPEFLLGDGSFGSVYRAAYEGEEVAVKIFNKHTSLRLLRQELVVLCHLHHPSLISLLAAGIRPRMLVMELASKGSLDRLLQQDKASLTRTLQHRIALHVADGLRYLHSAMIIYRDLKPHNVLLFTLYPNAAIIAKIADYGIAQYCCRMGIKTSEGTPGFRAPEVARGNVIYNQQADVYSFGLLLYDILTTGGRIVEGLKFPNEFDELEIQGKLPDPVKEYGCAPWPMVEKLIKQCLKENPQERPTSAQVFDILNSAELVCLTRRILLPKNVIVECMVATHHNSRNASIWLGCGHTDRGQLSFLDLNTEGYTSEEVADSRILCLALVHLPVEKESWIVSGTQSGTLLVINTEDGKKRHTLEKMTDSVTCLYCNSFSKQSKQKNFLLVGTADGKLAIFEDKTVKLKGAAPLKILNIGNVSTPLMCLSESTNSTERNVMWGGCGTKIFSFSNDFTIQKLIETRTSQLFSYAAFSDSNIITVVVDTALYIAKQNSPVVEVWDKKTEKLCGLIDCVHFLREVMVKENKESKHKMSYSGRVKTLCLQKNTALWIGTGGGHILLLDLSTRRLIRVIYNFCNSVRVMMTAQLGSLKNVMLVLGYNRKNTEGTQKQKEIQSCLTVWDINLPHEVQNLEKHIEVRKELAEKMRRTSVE
Recombinant G2019S-LRRK2 protein, sequence (Q5S007 whole entry G2019S): as the sequence (Q5S007 whole entry) above, with G2019S counted along it

## N#Cc1cnc(C(=O)Nc2ccc3[nH]nc(-c4cnco4)c3c2)c(Cl)c1 [Example 318, 3-Chloro-5-cyano-N-(3-(oxazol-5-yl)-1H-indazol-5-yl)picolinamide]
[1]
  IC50: < 100 nM
[2]
  IC50: < 100 nM

## Cc1cc(C#N)cnc1C(=O)Nc1ccc2[nH]nc(-c3cccc(P(C)(C)=O)c3)c2c1 [Example 319, 5-Cyano-N-(3-(3-(dimethylphosphoryl)phenyl)-1H-indazol-5-yl)-3-methylpicolinamide]
[1]
  IC50: < 100 nM
[2]
  IC50: 100 to 1000 nM

## Cc1c(C(=O)Nc2ccc3[nH]nc(Cl)c3c2)nc(Cl)c(C#N)c1C [Example 320, 6-Chloro-N-(3-chloro-1H-indazol-5-yl)-5-cyano-3,4-dimethylpicolinamide]
[1]
  IC50: < 100 nM
[2]
  IC50: < 100 nM

## COc1nc(C(=O)Nc2ccc3[nH]nc(Cl)c3c2)c(C)c(C)c1C#N [Example 321, N-(3-Chloro-1H-indazol-5-yl)-5-cyano-6-methoxy-3,4-dimethylpicolinamide]
[1]
  IC50: < 100 nM
[2]
  IC50: 100 to 1000 nM

## COc1nc(C(=O)Nc2ccc3[nH]nc(C)c3c2)c(C)c(C)c1C#N [Example 322, 5-Cyano-6-methoxy-3,4-dimethyl-N-(3-methyl-1H-indazol-5-yl)picolinamide]
[1]
  IC50: < 100 nM
[2]
  IC50: < 100 nM

## Cc1cc(C#N)cnc1C(=O)Nc1ccc2[nH]nc(CCCN3CCCCC3)c2c1 [Example 323, 5-cyano-3-methyl-N-(3-(3-(piperidin-1-yl)propyl)-1H-indazol-5-yl)picolinamide]
[1]
  IC50: > 10000 nM
[2]
  IC50: > 10000 nM

## Cc1c(C(=O)Nc2ccc3[nH]nc(Br)c3c2)nc(Cl)c(C#N)c1C [Example 324, N-(3-Bromo-1H-indazol-5-yl)-6-chloro-5-cyano-3,4-dimethylpicolinamide]
[1]
  IC50: < 100 nM
[2]
  IC50: < 100 nM

## Cc1nc(C(=O)Nc2ccc3[nH]nc(C)c3c2)c(C)c(C)c1C#N [Example 325, 5-Cyano-3,4,6-trimethyl-N-(3-methyl-1H-indazol-5-yl)picolinamide]
[1]
  IC50: < 100 nM
[2]
  IC50: 1000 to 10000 nM

## Cc1c(C#N)cnc(C(=O)Nc2ccc3[nH]nc(C)c3c2)c1Cl [Example 326, 3-Chloro-5-cyano-4-methyl-N-(3-methyl-1H-indazol-5-yl)picolinamide]
[1]
  IC50: < 100 nM
[2]
  IC50: 100 to 1000 nM

## Cc1c(C(=O)Nc2ccc3[nH]nc(C4CC4)c3c2)nc(C(F)F)c(C#N)c1C [Example 327, 5-Cyano-N-(3-cyclopropyl-1H-indazol-5-yl)-6-(difluoromethyl)-3,4-dimethylpicolinamide]
[1]
  IC50: < 100 nM
[2]
  IC50: < 100 nM

## Cc1c(C(=O)Nc2ccc3[nH]nc(C4CC4)c3c2)nc(C(F)(F)F)c(C#N)c1C [Example 328, 5-Cyano-N-(3-cyclopropyl-1H-indazol-5-yl)-3,4-dimethyl-6-(trifluoromethyl)picolinamide]
[1]
  IC50: < 100 nM
[2]
  IC50: < 100 nM

## COc1n[nH]c2ccc(NC(=O)c3nc(Br)c(C#N)c(C)c3C)cc12 [Example 329, 6-Bromo-5-cyano-N-(3-methoxy-1H-indazol-5-yl)-3,4-dimethylpicolinamide]
[1]
  IC50: < 100 nM
[2]
  IC50: < 100 nM

## Cc1c(C(=O)Nc2ccc3[nH]nc(C4CC4)c3c2)nc(Br)c(C#N)c1C [Example 330, 6-Bromo-5-cyano-N-(3-cyclopropyl-1H-indazol-5-yl)-3,4-dimethylpicolinamide]
[1]
  IC50: < 100 nM
[2]
  IC50: < 100 nM

## Cc1c(Cl)c(C(=O)Nc2ccc3[nH]nc(C4CC4)c3c2)nc(Cl)c1C#N [Example 331, 3,6-Dichloro-5-cyano-N-(3-cyclopropyl-1H-indazol-5-yl)-4-methylpicolinamide]
[1]
  IC50: < 100 nM
[2]
  IC50: < 100 nM

## C=Cc1nc(C(=O)Nc2ccc3[nH]nc(C4CC4)c3c2)c(C)c(C)c1C#N [Example 332, 5-Cyano-N-(3-cyclopropyl-1H-indazol-5-yl)-3,4-dimethyl-6-vinylpicolinamide]
[1]
  IC50: < 100 nM
[2]
  IC50: 100 to 1000 nM

## CCc1nc(C(=O)Nc2ccc3[nH]nc(C4CC4)c3c2)c(C)c(C)c1C#N [Example 333, 5-Cyano-N-(3-cyclopropyl-1H-indazol-5-yl)-6-ethyl-3,4-dimethylpicolinamide]
[1]
  IC50: < 100 nM
[2]
  IC50: 100 to 1000 nM

## Cc1c(C(=O)Nc2ccc3[nH]nc(C4CC4)c3c2)nc(C2CC2)c(C#N)c1C [Example 334, 5-Cyano-6-cyclopropyl-N-(3-cyclopropyl-1H-indazol-5-yl)-3,4-dimethylpicolinamide]
[1]
  IC50: < 100 nM
[2]
  IC50: 100 to 1000 nM

## Cc1c(C#N)cnc(C(=O)Nc2ccc3[nH]nc(-c4cnn(C5CC5)c4)c3c2)c1C [Example 335, 5-Cyano-N-(3-(1-cyclopropyl-1H-pyrazol-4-yl)-1H-indazol-5-yl)-3,4-dimethylpicolinamide]
[1]
  IC50: < 100 nM
[2]
  IC50: < 100 nM

From patent publication US11427558B1, “Indazoles and azaindazoles as LRRK2 inhibitors” (ESCAPE Bio, Inc., priority 2019, dated 2022)
